Patent publication US20220062240A1, “METHODS OF TREATING CANCER USING A CLK INHIBITOR” (BioSplice Therapeutics, Inc., priority 2018, published 2022)
Where two headings read alike, the source gives them in different places.

How the values were obtained:
[1] = tested on: lung cancer (4 cell lines); assay: CellTiter-Glo Viability Assay, lung cancer; type: cell-based; details: Homo sapiens, inhibition of cancer cell proliferation
BT-549 = assay: CellTiter-Glo Viability Assay, breast cancer; type: cell-based; details: Homo sapiens, 96 h; BT-549, breast cancer, four days; read-out: EC50
DU4475 = assay: CellTiter-Glo Viability Assay, breast cancer; type: cell-based; details: Homo sapiens, DU-4475, 96 h; DU4475, breast cancer, four days; read-out: EC50
CAMA1 = assay: CellTiter-Glo Viability Assay, breast cancer; type: cell-based; details: Homo sapiens, CAMA-1, 96 h; CAMA1, breast cancer, four days; read-out: EC50
MCF7 = assay: CellTiter-Glo Viability Assay, breast cancer; type: cell-based; details: Homo sapiens, 96 h; MCF7, breast cancer, four days; read-out: EC50
MDA-MB-231-Luc = assay: CellTiter-Glo Viability Assay, breast cancer; type: cell-based; details: Homo sapiens, 96 h; MDA-MB-231-Luc, breast cancer, four days; read-out: EC50
HCC1599 = assay: CellTiter-Glo Viability Assay, breast cancer; type: cell-based; details: Homo sapiens, 96 h; HCC1599, breast cancer, four days; read-out: EC50
T47D = assay: CellTiter-Glo Viability Assay, breast cancer; type: cell-based; details: Homo sapiens, 96 h, breast cancer, four days, read-out: EC50
ZR-75-1 = assay: CellTiter-Glo Viability Assay, breast cancer; type: cell-based; details: Homo sapiens, 96 h; ZR-75-1, breast cancer, four days; read-out: EC50
[2] = tested on: ovarian cancer (4 cell lines); assay: CellTiter-Glo Viability Assay, ovarian cancer; type: cell-based; details: Homo sapiens, inhibition of cancer cell proliferation
[3] = tested on: colorectal cancer (6 cell lines); assay: CellTiter-Glo Viability Assay, colorectal cancer; type: cell-based; details: Homo sapiens, inhibition of cancer cell proliferation
[4] = tested on: prostate cancer (5 cell lines); assay: CellTiter-Glo Viability Assay, prostate cancer; type: cell-based; details: Homo sapiens
CLK2 = target: T1, CLK2 (Homo sapiens, UniProt P49760); assay: CLK2 kinase activity assay (Z-lyte, Ser/Thr 6 peptide); type: biochemical; details: recombinant CLK2 kinase, ATP 60 μM; read-out: EC50
T1 construct: purchased Thermo Fisher (Life Technologies), Z'-LYTE Kinase Assay Kits
T1 sequence (P49760 whole entry): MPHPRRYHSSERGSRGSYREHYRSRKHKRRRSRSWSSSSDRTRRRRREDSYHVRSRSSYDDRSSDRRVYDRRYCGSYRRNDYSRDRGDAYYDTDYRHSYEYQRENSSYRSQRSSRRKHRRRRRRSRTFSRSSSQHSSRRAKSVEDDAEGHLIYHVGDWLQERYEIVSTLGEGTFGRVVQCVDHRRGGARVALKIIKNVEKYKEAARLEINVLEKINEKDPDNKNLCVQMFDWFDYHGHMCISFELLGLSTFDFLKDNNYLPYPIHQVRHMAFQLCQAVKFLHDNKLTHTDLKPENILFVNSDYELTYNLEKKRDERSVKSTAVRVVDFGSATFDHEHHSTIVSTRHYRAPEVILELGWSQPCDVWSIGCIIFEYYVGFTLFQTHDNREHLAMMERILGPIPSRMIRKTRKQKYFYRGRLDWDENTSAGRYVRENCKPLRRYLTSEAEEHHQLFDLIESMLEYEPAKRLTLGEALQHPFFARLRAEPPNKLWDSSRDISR
Protocol: All reactions were performed in duplicate.

[5] = tested on: pancreatic cancer (8 cell lines); assay: CellTiter-Glo Viability Assay, pancreatic cancer; type: cell-based; details: Homo sapiens, inhibition of cancer cell proliferation
CLK3 = CLK3 (Homo sapiens, UniProt P49761); assay: CLK3 kinase activity assay (Z-lyte, Ser/Thr 18 peptide)
CLK3, sequence (P49761 whole entry): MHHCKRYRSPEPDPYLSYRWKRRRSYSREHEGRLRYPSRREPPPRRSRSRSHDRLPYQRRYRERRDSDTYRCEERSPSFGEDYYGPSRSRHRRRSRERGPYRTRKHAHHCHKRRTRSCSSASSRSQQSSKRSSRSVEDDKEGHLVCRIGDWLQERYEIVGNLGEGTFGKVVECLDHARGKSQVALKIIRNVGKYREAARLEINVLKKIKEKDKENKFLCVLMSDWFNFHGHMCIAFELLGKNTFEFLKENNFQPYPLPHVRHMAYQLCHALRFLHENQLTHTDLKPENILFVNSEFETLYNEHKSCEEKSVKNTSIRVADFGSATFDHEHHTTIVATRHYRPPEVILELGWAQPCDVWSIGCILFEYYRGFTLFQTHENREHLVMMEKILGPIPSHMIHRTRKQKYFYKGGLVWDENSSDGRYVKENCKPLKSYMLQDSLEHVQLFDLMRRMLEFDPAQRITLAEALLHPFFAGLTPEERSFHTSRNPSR
Protocol: Each compound was dissolved in DMSO as a 10 mM stock and used to prepare compound source plates.
This is a non-radioactive assay using fluorescence resonance energy transfer (FRET) between coumarin and fluorescein to detect kinase activity which is represented as a ratio of coumarin emission/fluorescein emission.
All reactions were performed in duplicate. Unphosphorylated (“0% Control”) and phosphorylated (“100% control”) forms of Ser/Thr 18 served as control reactions. Additionally, an 11-point dose-response curve of Staurosporine (1 uM top) was run to serve as a positive compound control.
After incubation, Development Reagent A was diluted in Development Buffer then added to the reaction and allowed to further incubate for one hour at room temperature.
Dose-response curves were generated and inhibitory concentration (IC50) values were calculated using non-linear regression curve fit in the Dotmatics' Studies Software (Bishops Stortford, UK).
Compounds were acoustically transferred on 1536-well plates (Echo 550, LabCyte) instrument. Kinase, peptide, and ATP reagents from the Z′-LYTE Kinase Assay Kits (Thermo Fisher) were dispensed onto the compound plates using an EL406 liquid dispenser (BioTek). Plates were incubated in the dark at room temperature for 1 hr. Development reagent was added to the plates and then incubated in the dark at room temperature for 1 hr. Fluorescence signal form the plate was then read using an EnVision Multilabel Plate Reader (Perkin Elmer).

[6] = tested on: liver cancer (3 cell lines); assay: CellTiter-Glo Viability Assay, liver cancer; type: cell-based; details: Homo sapiens, inhibition of cancer cell proliferation
all 50 cell lines = assay: CellTiter-Glo Viability Assay, average across all cell lines; type: cell-based; details: Homo sapiens; across all 50 cell lines; read-out: average EC50 for inhibition of cancer cell proliferation
Outline: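 Cells were plated at 300-3,000 per well in their own media, then treated with compound in duplicate, with DMSO wells as controls. After four days at 37° C and 5% CO2, CellTiter-Glo was added, and luminescence was read. EC50s were fitted.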

[7] = tested on: haematopoietic & lymphoid tumors (13 cell lines); assay: CellTiter-Glo Viability Assay, haematopoietic & lymphoid tumors; type: cell-based; details: Homo sapiens, inhibition of cancer cell proliferation

## CN1CCC(Oc2ccc(NC(=O)c3n[nH]c4cc(F)c(-c5cnn(C)c5)cc34)cc2)CC1 [Compound 61]
[1]; A-427, A427 cell line, read-out: Lung cancer, EC50 (μM) A427
  EC50: 0.619 µM
[1]; HCC78, HCC-78 cell line, read-out: Lung cancer, EC50 (μM) HCC-78
  EC50: 3.02 µM
[1]; NCI-H460 cell line, read-out: Lung cancer, EC50 (μM) NCI-H460
  EC50: 0.856 µM
[1]; NCI-H522 cell line, read-out: Lung cancer, EC50 (μM) NCI-H522
  EC50: 0.57 µM
BT-549
  EC50: 786 nM
DU4475
  EC50: 411 nM
CAMA1
  EC50: 3850 nM
MCF7
  EC50: 3390 nM
MDA-MB-231-Luc
  EC50: 2040 nM
HCC1599
  EC50: 367 nM
T47D
  EC50: 3550 nM
ZR-75-1
  EC50: 1840 nM
[2]; PA-1, PA1 cell line, read-out: Ovarian cancer, EC50 (μM) PA1
  EC50: 0.819 µM
[2]; TOV112D, TOV-112D cell line, read-out: Ovarian cancer, EC50 (μM) TOV-112D
  EC50: 0.533 µM
[2]; OV-90 cell line, read-out: Ovarian cancer, EC50 (μM) OV-90
  EC50: 1.98 µM
[2]; OVCAR-3 cell line, read-out: Ovarian cancer, EC50 (μM) OVCAR-3
  EC50: 0.568 µM
[3]; HCT-116, HCT116 cell line, read-out: Colorectal cancer, EC50 (μM) HCT116
  EC50: 0.611 µM
[3]; HT-29, HT29 cell line, read-out: Colorectal cancer, EC50 (μM) HT29
  EC50: 1.7 µM
[3]; SW-620, SW620 cell line, read-out: Colorectal cancer, EC50 (μM) SW620
  EC50: 0.418 µM
[3]; DLD-1 cell line, read-out: Colorectal cancer, EC50 (μM) DLD-1
  EC50: 0.644 µM
[3]; SW48 cell line, read-out: Colorectal cancer, EC50 (μM) SW48
  EC50: 0.151 µM
[3]; SW480 cell line, read-out: Colorectal cancer, EC50 (μM) SW480
  EC50: 0.769 µM
[4]; DU-145, read-out: Prostate cancer EC50 Du-145
  EC50: 1260 nM
[4]; PC-3, PC3 cell line, inhibition of cancer cell proliferation, read-out: Prostate cancer EC50 PC3
  EC50: 1230 nM
[4]; 22Rv1 cell line, inhibition of cancer cell proliferation, read-out: Prostate cancer EC50 22Rv1
  EC50: 672 nM
[4]; LNCap clone FGC cell line, inhibition of cancer cell proliferation, read-out: Prostate cancer EC50 LNCap clone FGC
  EC50: 779 nM
[4]; VCaP (Sigma) cell line, inhibition of cancer cell proliferation, read-out: Prostate cancer EC50 VCaP (Sigma)
  EC50: 1480 nM
CLK2
  EC50: 0.6 nM
[5]; BXPC-3, BxPC3 cell line, read-out: Pancreatic cancer, EC50 BxPC3
  EC50: 2030 nM
[5]; CAPAN-1, Capan1 cell line, read-out: Pancreatic cancer, EC50 Capan1
  EC50: 2090 nM
[5]; Capan-2, Capan2 cell line, read-out: Pancreatic cancer, EC50 Capan2
  EC50: 2720 nM
[5]; MIA PaCa-2 cell line, read-out: Pancreatic cancer, EC50 MIA PaCa-2
  EC50: 438 nM
[5]; PANC 05.04 cell line, read-out: Pancreatic cancer, EC50 PANC 05.04
  EC50: 2260 nM
[5]; PANC-1 cell line, read-out: Pancreatic cancer, EC50 PANC-1
  EC50: 2160 nM
[5]; UPAFII cell line, read-out: Pancreatic cancer, EC50 UPAFII
  EC50: 1030 nM
CLK3
  EC50: 49.1 nM
[6]; SNU-398, SNU398 cell line, read-out: Liver cancer, EC50 SNU398
  EC50: 450 nM
[6]; HEPG2 cell line, read-out: Liver cancer, EC50 HEPG2
  EC50: 1460 nM
[6]; PLC/PRF/5 cell line, read-out: Liver cancer, EC50 PLC/PRF/5
  EC50: 3160 nM
All 50 cell lines
  EC50: 1220 nM
[7]; DND41, DND-41 cell line, read-out: Haematopoietic & Lymphoid tumors, EC50 (μM) DND-41
  EC50: 0.798 µM
[7]; MV4-11, MV-4-11 cell line, read-out: Haematopoietic & Lymphoid tumors, EC50 (μM) MV-4-11
  EC50: 0.057 µM
[7]; Rec1, REC-1 cell line, read-out: Haematopoietic & Lymphoid tumors, EC50 (μM) REC-1
  EC50: 0.261 µM
[7]; SU-DHL-4, SUDHL4 cell line, read-out: Haematopoietic & Lymphoid tumors, EC50 (μM) SUDHL4
  EC50: 0.779 µM
[7]; HL-60 cell line, read-out: Haematopoietic & Lymphoid tumors, EC50 (μM) HL-60
  EC50: 1.64 µM
[7]; JM1 cell line, read-out: Haematopoietic & Lymphoid tumors, EC50 (μM) JM1
  EC50: 0.237 µM
[7]; JURKAT, Clone E6-1 cell line, read-out: Haematopoietic & Lymphoid tumors, EC50 (μM) JURKAT, Clone E6-1
  EC50: 0.88 µM
[7]; JeKo-1 cell line, read-out: Haematopoietic & Lymphoid tumors, EC50 (μM) JeKo-1
  EC50: 0.201 µM
[7]; KASUMI-1 cell line, read-out: Haematopoietic & Lymphoid tumors, EC50 (μM) KASUMI-1
  EC50: 0.273 µM
[7]; Loucy cell line, read-out: Haematopoietic & Lymphoid tumors, EC50 (μM) Loucy
  EC50: 0.581 µM
[7]; MOLT-4 cell line, read-out: Haematopoietic & Lymphoid tumors, EC50 (μM) MOLT-4
  EC50: 0.999 µM
[7]; TF-1 cell line, read-out: Haematopoietic & Lymphoid tumors, EC50 (μM) TF-1
  EC50: 1.31 µM
[7]; TOLEDO cell line, read-out: Haematopoietic & Lymphoid tumors, EC50 (μM) TOLEDO
  EC50: 0.182 µM
